{"source": "patent US10053497B2", "about": "“Therapeutic epitopes and uses thereof” (OXFORD UNIVERSITY INNOVATION LIMITED, priority 2002, dated 2018)", "assay_type_in_all_cases": "cell-based, human", "key": {"[1]": {"test_system": "PBMC of HLA-DQ2+ coeliac subjects", "test": "IFNγ ELISpot, comprehensive gliadin epitope mapping in HLA-DQ2+ coeliac subjects after gluten challenge", "conditions": "for Mean (SEM) bioactivity of deamidated peptides as % of P04722 E85: HLA-DQ2 coeliac subjects C01-5; for IFNg ELISpot response compared to P04722 77-93 QE85 (SEQ ID NO: 27): mean (SEM): peptides grouped by structure", "outline": "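PBMC (2-8×10^5/well) from HLA-DQ2+ coeliac subjects on gluten-free diet were taken before and on day 6/7 after 3-day bread challenge. They were incubated overnight with 20mer peptides or pools (20 μg/ml each), ± tTG deamidation (tTG 64 μg/ml in wells), in RPMI/10% human AB serum. Net sfc/million minus blank; single-peptide responses as % of P04722 77-93 QE85.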"}, "PBMC of coeliac patients": {"test_system": "PBMC of coeliac patients", "test": "ELISpot of the 652 peptides in patients challenged with wheat or rye", "conditions": "for Dominance among individual peptide responses, rye: rye challenge; for Dominance among individual peptide responses, wheat: wheat challenge", "from_the_text": "Dominance depends on wheat or rye. For wheat, dominant peptides include peptide numbers 89, 90 and 91 (referring to sequence numbers in Table 23) (SEQ ID NO: 195, SEQ ID NO:196 and SEQ ID NO:197 respectively). For rye, dominant peptides include peptide numbers 368, 369, 370, 371, and 372 (referring to sequence numbers in Table 23) (SEQ ID NO:474, SEQ ID NO:475, SEQ ID NO:476, SEQ ID NO:477 and SEQ ID NO:478 respectively)."}, "[2]": {"test_system": "PBMC from coeliac disease subjects", "test": "IFNγ ELISPOT with PBMC of coeliac disease subjects after bread/gluten challenge (agonist bioactivity of peptides)"}, "[3]": {"test_system": "PBMC from coeliac volunteers", "test": "Antagonism of A-gliadin 57-73 QE65 IFNgamma ELISPOT response (simultaneous addition of peptide)", "conditions": "variant 50 μg/ml plus A-gliadin 57-73 QE65 10 μg/ml; n=5", "experimental": "Simultaneous addition of peptide (50 μg/ml) or buffer and A-gliadin 57-73 QE65 (SEQ ID NO:2) (10 μg/ml) in IFNgamma ELISPOT using PBMC from coeliac volunteers 6 days after commencing 3 day gluten challenge (n=5). Results were expressed as response with peptide plus A-G 57-73 QE65 (mean of duplicates) as % response with buffer plus A-G 57-73 QE65 (mean of 20 replicates). (See Table 9)."}, "[4]": {"test_system": "PBMC of newly diagnosed coeliac subjects", "test": "IFNγ ELISpot in newly diagnosed coeliac disease: duration of gluten free diet before gluten challenge"}}}
{"substance": "371: Table 23 20mer, SEQ ID NO:477 (PQQQFIQPQQPFPQQPQQTY) [Peptide 371]", "values": [{"measurement": "Mean (SEM) bioactivity of deamidated peptides as % of P04722 E85", "setting": "[1]; 20 μg/ml", "result": "22 (10) %"}, {"measurement": "IFNg ELISpot response compared to P04722 77-93 QE85 (SEQ ID NO: 27): mean (SEM)", "setting": "[1]", "result": "22 (10) %"}, {"measurement": "Dominance among individual peptide responses, rye", "setting": "PBMC of coeliac patients", "result": "dominant"}]}
{"substance": "368: Table 23 20mer, SEQ ID NO:474 (QQFPQPQQPQQPFPQQPQQQ) [Peptide 368]", "values": [{"measurement": "Mean (SEM) bioactivity of deamidated peptides as % of P04722 E85", "setting": "[1]; 20 μg/ml", "result": "14 (7) %"}, {"measurement": "Dominance among individual peptide responses, rye", "setting": "PBMC of coeliac patients", "result": "dominant"}]}
{"substance": "90: Table 23 20mer, SEQ ID NO:196 (PQLPYPQPQLPYPQPQPFRP) [Peptide 90]", "values": [{"measurement": "Mean (SEM) bioactivity of deamidated peptides as % of P04722 E85", "setting": "[1]; 20 μg/ml", "result": "87 (16) %"}, {"measurement": "IFNg ELISpot response compared to P04722 77-93 QE85 (SEQ ID NO: 27): mean (SEM)", "setting": "[1]", "result": "87 (16) %"}, {"measurement": "Dominance among individual peptide responses, wheat", "setting": "PBMC of coeliac patients", "result": "dominant"}]}
{"substance": "89: Table 23 20mer, SEQ ID NO: 195 (PQLPYPQPQLPYPQPQLPYP) [Peptide 89]", "values": [{"measurement": "Mean (SEM) bioactivity of deamidated peptides as % of P04722 E85", "setting": "[1]; 20 μg/ml", "result": "94 (18) %"}, {"measurement": "IFNg ELISpot response compared to P04722 77-93 QE85 (SEQ ID NO: 27): mean (SEM)", "setting": "[1]", "result": "94 (18) %"}, {"measurement": "Dominance among individual peptide responses, wheat", "setting": "PBMC of coeliac patients", "result": "dominant"}]}
{"substance": "636: Table 23 20mer, homologue of 626, SEQ ID NO:742 (PQQPQQPFPQPQQPIPVQPQ) [Peptide 636]", "values": [{"measurement": "Mean (SEM) bioactivity of deamidated peptides as % of P04722 E85", "setting": "[1]; 20 μg/ml", "result": "51 (20) %"}, {"measurement": "IFNg ELISpot response compared to P04722 77-93 QE85 (SEQ ID NO: 27): mean (SEM)", "setting": "[1]", "result": "51 (10) %"}, {"measurement": "Bioactivity as percent of response to P04722 77-93 QE85", "setting": "[1]; tTG-deamidated, 20 μg/ml, median, HLA-DQ2 coeliac subjects", "result": 51, "unit": "%"}, {"measurement": "Activity after rye and wheat challenge", "setting": "PBMC of coeliac patients", "result": "showed activity in both rye and wheat"}]}
{"substance": "A-gliadin 57-73 P65: non-bioactive variant, SEQ ID NO:780 (QLQPFPQPPLPYPQPQS)", "values": [{"measurement": "Bioactivity % of unmodified A-gliadin 57-73 QE65 (G)", "setting": "[2]; 50 mcg/ml, PBMC from 8 subjects, blank 7.1%, listed as P65", "result": 8, "unit": "%"}, {"measurement": "Mean IFNγ ELISPOT response relative to the immunodominant epitope (Glu65)", "setting": "[2]; A-gliadin 57-73 with the named amino acid at position 65, 50 μg/ml, 3 subjects, day 6, listed as Proline", "result": 2, "unit": "%"}, {"measurement": "% agonist. (agonist activity compared to A-gliadin 57-73 QE65)", "setting": "[2]; Table 9, 50 mcg/ml", "result": 8, "unit": "%"}, {"measurement": "% Inhibit. of A-gliadin 57-73 QE65 interferon gamma ELISPOT response", "setting": "[3]", "result": 15, "unit": "%"}, {"measurement": "IFNγ ELISpot response, Day 0, 1 week gluten free diet", "setting": "[4]; GFD: 1 week", "result": "2 IFNγ specific spots/million PP"}, {"measurement": "IFNγ ELISpot response, Day 6 of gluten challenge, 1 week gluten free diet", "setting": "[4]; GFD: 1 week", "result": "0 IFNγ specific spots/million PP"}, {"measurement": "IFNγ ELISpot response, Day 0, 2 weeks gluten free diet", "setting": "[4]; GFD: 2 weeks", "result": "1 IFNγ specific spots/million PP"}, {"measurement": "IFNγ ELISpot response, Day 6 of gluten challenge, 2 weeks gluten free diet", "setting": "[4]; GFD: 2 weeks", "result": "0 IFNγ specific spots/million PP"}, {"measurement": "IFNγ ELISpot response, Day 0, 8 weeks gluten free diet", "setting": "[4]; GFD: 8 weeks", "result": "1 IFNγ specific spots/million PP"}, {"measurement": "IFNγ ELISpot response, Day 6 of gluten challenge, 8 weeks gluten free diet", "setting": "[4]; GFD: 8 weeks", "result": "0 IFNγ specific spots/million PP"}, {"measurement": "IFNγ ELISpot response, Day 0, no gluten free diet", "setting": "[4]; GFD: none", "result": "1 IFNγ specific spots/million PP"}, {"measurement": "IFNγ ELISpot response, Day 6 of gluten challenge, no gluten free diet", "setting": "[4]; GFD: none", "result": "0 IFNγ specific spots/million PP"}]}
{"substance": "372: Table 23 20mer, SEQ ID NO:478 (PQQQFIQPQQPQQTYPQRPQ) [Peptide 372]", "values": [{"measurement": "Dominance among individual peptide responses, rye", "setting": "PBMC of coeliac patients", "result": "dominant"}]}
